Laboratory results from PMC6099400, “A New Benzophenone C-Glucoside and Other Constituents of Pseuduvaria fragrans and Their α-Glucosidase Inhibitory Activity” (Molecules : A Journal of Synthetic Chemistry and Natural …, 2018).
Read-outs that look alike come from different tables or passages of the source.

Legend:
[1] = target: T1, Yeast α-glucosidase enzyme (Saccharomyces cerevisiae, UniProt P53341); assay: Kinetic study of α-glucosidase inhibition (Lineweaver-Burk and secondary plots); assay type: biochemical; details: for mode of enzyme inhibition: Lineweaver-Burk plots; for Slope: Lineweaver-Burk
T1 sequence (P53341 whole entry): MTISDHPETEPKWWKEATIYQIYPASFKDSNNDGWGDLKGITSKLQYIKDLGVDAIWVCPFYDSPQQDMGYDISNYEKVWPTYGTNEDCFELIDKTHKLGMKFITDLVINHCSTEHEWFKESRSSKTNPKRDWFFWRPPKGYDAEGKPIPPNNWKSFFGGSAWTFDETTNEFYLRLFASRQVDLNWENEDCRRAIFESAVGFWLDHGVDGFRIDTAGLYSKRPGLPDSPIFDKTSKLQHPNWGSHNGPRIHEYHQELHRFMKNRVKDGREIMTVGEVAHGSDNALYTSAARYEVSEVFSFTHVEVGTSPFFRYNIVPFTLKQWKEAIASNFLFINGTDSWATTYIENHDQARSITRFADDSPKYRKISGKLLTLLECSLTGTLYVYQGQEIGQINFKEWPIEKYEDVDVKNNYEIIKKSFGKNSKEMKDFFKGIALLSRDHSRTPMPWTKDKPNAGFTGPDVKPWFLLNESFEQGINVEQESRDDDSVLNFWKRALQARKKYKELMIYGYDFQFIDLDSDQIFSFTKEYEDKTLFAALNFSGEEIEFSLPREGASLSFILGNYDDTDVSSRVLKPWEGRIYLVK
Method: Lineweaver-Burk plots of the inverted values of velocity (1/V) versus the inverted values of substrate concentration (1/[S]) were prepared. […] To determine the Ki of each amide, we constructed a secondary plot by replotting the reciprocal of Km (1/Km) against inhibitor concentration.
Vacuum liquid chromatography (VLC) and column chromatography (CC) were performed on silica gel 60 (40–63 μm, Merck, Darmstadt, Germany), silica gel 60 (63–200 μm, Merck, Darmstadt, Germany) or Sephadex LH-20 (Pharmacia, Piscataway, NJ, USA) or Diaion HP20 (Mitsubishi Chemical, Tokyo, Japan). For preparative HPLC, a Shim-pack Prep-ODS (No.2025820) column (Shimadzu, Tokyo, Japan), with isocratic 50% methanol in water, SPD-10A UV-Vis detector (Shimadzu, Tokyo, Japan), and flow rate 1 mL/min, was used. NMR spectra were obtained with a Bruker Avance DPX-300 FT-NMR spectrometer (Brucker Corporation, Billerica, MA, USA). High-resolution electrospray ionization mass spectra (HR-ESI-MS) were recorded with a Bruker micro TOF mass spectrometer (Bruker Daltonics, Billerica, MA, USA). Optical rotations were obtained with a PerkinElmer 341 polarimeter (PerkinElmer, Boston, MA, USA). UV spectra were measured on an Agilent Technologies Cary 60 UV-Vis (Agilent, Santa Clara, CA, USA), and IR spectra (Agilent, Santa Clara, CA, USA) were recorded on a Perkin-Elmer FT-IR 1760x spectrophotometer (PerkinElmer, Boston, MA, USA). […] Absorbance in 96-well plates was measured using a microplate reader (Wallac1420 Multilevel counter, Victor3, PerkinElmer).
The kinetic assay of enzyme inhibition was done in a 96-well plate. The enzyme kinetics parameters (Km and Vmax) were obtained by analyzing the double reciprocal Lineweaver-Burk plot (1/V vs. 1/[S]). Each experiment was carried out by varying the concentration of pNPG (2.0, 1.0, 0.5, 0.25, 0.125 mM) in the absence and presence of different concentrations of the test sample. The reaction was monitored at 405 nm by a microplate reader every 5 min for a total time of 30 min. Each experiment was performed in triplicate. […] The inhibition constant (Ki) of each compound was then calculated from the intersection on the abscissa.

[2] = target: T1, Yeast α-glucosidase enzyme; details: earlier report; cited from earlier work

Structure (SMILES) | mode of enzyme inhibition [1] | Slope ([1]; inhibitor dose 0.5 µM) | Slope ([1]; inhibitor dose 1.0 µM) | Slope ([1]; inhibitor dose 2.0 µM) | Vmax ([1]; inhibitor dose 0.5 µM) | Vmax ([1]; inhibitor dose 1.0 µM) | Vmax ([1]; inhibitor dose 2.0 µM) | mode of enzyme inhibition [2] | Slope ([1]; inhibitor dose 4.0 µM) | Slope ([1]; inhibitor dose 8.0 µM) | Vmax ([1]; inhibitor dose 4.0 µM) | Vmax ([1]; inhibitor dose 8.0 µM)
O=C(/C=C/c1ccc(O)cc1)NCCc1ccc(O)cc1 [Compound 6, N-trans-coumaroyltyramine] | uncompetitive inhibitors | 34.55 | 34.67 | 35.56 | 0.0077 ΔA405/min | 0.0030 ΔA405/min | 0.0018 ΔA405/min | uncompetitive α-glucosidase inhibition |  |  |  | 
COc1cc(/C=C/C(=O)NCCc2ccc(O)cc2)ccc1O [Compound 7, N-trans-feruloyltyramine] | uncompetitive inhibitors |  |  | 36.62 |  |  | 0.0072 ΔA405/min |  | 37.56 | 36.51 | 0.0044 ΔA405/min | 0.0027 ΔA405/min
C[C@H]1O[C@H](O[C@H]2[C@H](O)[C@@H](O)[C@@H](O[C@H]3[C@H](O)[C@@H](O)C(O)O[C@@H]3CO)O[C@@H]2CO)[C@H](O)[C@@H](O)[C@@H]1N[C@H]1C=C(CO)[C@@H](O)[C@H](O)[C@H]1O (stereo partly shown) [acarbose, reference compound] | competitive inhibition |  |  |  |  |  |  |  |  |  |  | 
